According to publication PMC9460261, “Need for a Standardized Translational Drug Development Platform: Lessons Learned from the Repurposing of Drugs for COVID-19” (Microorganisms, 2022):
Counter-ions that a name gives are not always drawn. Like-named read-outs stand apart in the source and are kept apart here.

How the values were obtained:
[1] = system: SARS-CoV-2 in Human Airway Epithelia (HAE)
[2] = system: SARS-CoV-2 in A549-Dual hACE2-TMPRSS2 cells; experiment: microbe, parasite or virus in culture; conditions: Severe acute respiratory syndrome coronavirus 2, read-out: A549-Dual hACE2-TMPRSS2 cells Average EC50
[3] = system: SARS-CoV-2 in A549-Dual hACE2-TMPRSS2 cells; conditions: for EC50: read-out: A549-Dual hACE2-TMPRSS2 cells Average EC50

Molecule | Activity Ex Vivo Human Airway Epithelia (HAE) [1] | EC50 [2] | Activity In Vitro; Potency EC50 or IC50 < 10 µM; A549 Cells [3] | EC50 [3] | A549-Dual hACE2-TMPRSS2 cells Average EC50 [3] | Concentration showing activity / complete inhibition of viral replication in HAE [1] | Toxicity observed (^T), A549 Cells [3]
CCN(CC)Cc1cc(Nc2ccnc3cc(Cl)ccc23)ccc1O [Amodiaquine, amodiaquine] | No | > 50 µM | No (Potency EC50 or IC50 < 10 µM) | – | – | – | –
NC(=O)c1nc(F)c[nH]c1=O [Favipiravir, favipiravir] | No | > 100 µM | No (Potency EC50 or IC50 < 10 µM) | – | – | – | –
O=c1nc(NO)ccn1[C@@H]1O[C@H](CO)[C@@H](O)[C@H]1O [EIDD-1931] | – | – | – | 0.47 µM | – | – | –
ivermectin | Yes | – | Yes (Potency EC50 or IC50 < 10 µM) | – | +NA | – | –
CC(C)(C)[C@H](NC(=O)C(F)(F)F)C(=O)N1C[C@H]2[C@@H]([C@H]1C(=O)N[C@H](C#N)C[C@@H]1CCNC1=O)C2(C)C [Nirmatrelvir, nirmatrelvir] | Yes | – | Yes (Potency EC50 or IC50 < 10 µM) | – | – | 1 µM | –
COc1ccc2cc1Oc1ccc(cc1)C[C@H]1c3c(cc4c(c3Oc3cc5c(cc3OC)CCN(C)[C@@H]5C2)OCO4)CCN1C [Cepharanthine, cepharanthine] | No | > 50 µM | No (Potency EC50 or IC50 < 10 µM) | – | – | – | –
COc1cc2c(c(OC)c1OC)-c1ccc(OC)c(=O)cc1[C@@H](NC(C)=O)CC2 [Colchicine, colchicine] | No | – | Yes ^T (key: Yes: Potency EC50 or IC50 < 10 µM; No: Potency EC50 or IC50 < 10 µM) | – | – | – | –
COC(=O)N[C@H](C(=O)N1CCC[C@H]1c1nc(-c2ccc(-c3ccc(-c4c[nH]c([C@@H]5CCCN5C(=O)[C@@H](NC(=O)OC)C(C)C)n4)cc3)cc2)c[nH]1)C(C)C [Daclatasvir, daclatasvir] | No | > 50 µM | No (Potency EC50 or IC50 < 10 µM) | – | – | – | –
CC(C)OC(=O)[C@H](C)N[P@](=O)(OC[C@H]1O[C@@H](n2ccc(=O)[nH]c2=O)[C@](C)(F)[C@@H]1O)Oc1ccccc1 [Sofosbuvir, sofosbuvir] | No | > 50 µM | No (Potency EC50 or IC50 < 10 µM) | – | – | – | –
CC(C)C(=O)OC[C@H]1O[C@@H](n2ccc(NO)nc2=O)[C@H](O)[C@@H]1O [Molnupiravir, molnupiravir] | Yes | 3.6 µM | Yes (Potency EC50 or IC50 < 10 µM) | – | – | 10 µM | –
COC(=O)N[C@H](C(=O)N[C@@H](Cc1ccccc1)[C@@H](O)CN(Cc1ccc(-c2ccccn2)cc1)NC(=O)[C@@H](NC(=O)OC)C(C)(C)C)C(C)(C)C [Atazanavir, atazanavir] | – | 24 µM | – | – | – | – | –
Nc1c(Br)cc(Br)cc1CN[C@H]1CC[C@H](O)CC1 [Ambroxol, ambroxol] | No | > 50 µM | No (Potency EC50 or IC50 < 10 µM) | – | – | – | –
Cc1c(O)cccc1C(=O)N[C@@H](CSc1ccccc1)[C@H](O)CN1C[C@H]2CCCC[C@H]2C[C@H]1C(=O)NC(C)(C)C [Nelfinavir, nelfinavir] | Yes | 3.2 µM | Yes (Potency EC50 or IC50 < 10 µM) | – | – | 10 µM | Yes ^T
CNCCC(Oc1ccc(C(F)(F)F)cc1)c1ccccc1 (stereo not drawn) [Fluoxetine, fluoxetine] | No | – | No (key: Yes: Potency EC50 or IC50 < 10 µM; No: Potency EC50 or IC50 < 10 µM) | – | – | – | –
COCCCC/C(=N\OCCN)c1ccc(C(F)(F)F)cc1 [Fluvoxamine maleate, fluvoxamine maleate] | No | 39.9 µM | No (key: Yes: Potency EC50 or IC50 < 10 µM; No: Potency EC50 or IC50 < 10 µM) | – | – | – | –
bemnifosbuvir | No | – | No (Potency EC50 or IC50 < 10 µM) | > 50 µM | – | – | –
CC1(C)C(=O)N(c2ccc(C#N)c(C(F)(F)F)c2F)C(=S)N1c1ccc(CCCc2ncco2)nc1 [Proxalutamide, proxalutamide] | No | – | No (Potency EC50 or IC50 < 10 µM) | > 50 µM | – | – | –
CC(=O)Oc1ccccc1C(=O)Nc1ncc([N+](=O)[O-])s1 [Nitazoxanide, nitazoxanide] | – | > 100 µM | No (Potency EC50 or IC50 < 10 µM) | – | – | 5 µM | –
OC(c1cc(C(F)(F)F)nc2c(C(F)(F)F)cccc12)C1CCCCN1 (stereo not drawn) [Mefloquine, mefloquine] | No | > 50 µM | No (Potency EC50 or IC50 < 10 µM) | – | – | – | –
O=C(Nc1ncc([N+](=O)[O-])s1)c1ccccc1O [Tizoxanide, tizoxanide] | – | > 100 µM | – | – | – | – | –
CC(C)/N=c1\cc2n(-c3ccc(Cl)cc3)c3ccccc3nc-2cc1Nc1ccc(Cl)cc1 [Clofazimine, clofazimine] | No | 2.4 µM | Yes (Potency EC50 or IC50 < 10 µM) | – | – | – | Yes ^T
CCCN(CCC)S(=O)(=O)c1ccc(C(=O)O)cc1 [Probenecid, probenecid] | No | > 50 µM | No (Potency EC50 or IC50 < 10 µM) | – | – | – | –
CC(=O)CCCCn1c(=O)c2c(ncn2C)n(C)c1=O [Pentoxyfilline, pentoxyfilline] | No | > 50 µM | No (Potency EC50 or IC50 < 10 µM) | – | – | – | –
CN(C)C(=O)COC(=O)Cc1ccc(OC(=O)c2ccc(NC(=N)N)cc2)cc1 [Camostat mesylate, camostat mesylate] | Yes | > 50 µM | No (Potency EC50 or IC50 < 10 µM) | – | – | 10 µM | –
